Source: patent publication US5723494A, “Derivatives of glutamic and aspartic acids, a method of preparing them, and their use as drugs for enhancing memory and learning” (priority 1993, dated 1998)
Read-outs that look alike come from different tables or passages of the source.

What was measured:
[1] = Antidepressant activity in the behavioural despair test in the mouse; type: in vivo, mouse (male CD1); settings: for inhibition in vivo at 3 mg/kg: 3 mg/kg IP; for inhibition in vivo at 10 mg/kg: 10 mg/kg IP; for inhibition in vivo at 30 mg/kg: 30 mg/kg IP
Source text: 5) Antidepressant activity in the "behavioural despair test" Another interesting aspect of the pharmacological activity of these products is the potent antidepressant activity which some of them display in an experimental model in the mouse, in which a state of depression is induced experimentally by the method of Porsolt et al. (Arch. Int. Pharmacodyn. 229, p. 327-336 (1977)). Male CDl mice which weighed about 20-25 g and had not fasted were used. The test consisted of inducing a state of depression in the animal which was subjected to forced swimming in a glass cylinder from which it could not escape. After a short period of vigorous activity the mouse adopted a characteristic posture of immobility which was easily identifiable; this immobility is reduced by antidepressant drugs. 1 l glass beakers, filled to 700 ml with water at a temperature of 25° C. were used for the test. The mice, 8 per group, were treated intraperitoneally with the drug under test, 30 minutes before the test. At time 0, each animal was immersed in a beaker and, after one minute during which all moved about swimming vigorously in order to escape, regardless of treatment, the observer, who was unaware of the treatment, assigned the following points: 0=animal immobile 1=minimum movement to remain afloat 2=vigorous swimming The greater the antidepressant activity of the drug, the more the animals will move about in order to try to escape from the water. The points were assigned every 15 sec for a total period of 5 min with a total of 20 observations. The antidepressant activity was determined with the use of various doses of the compound by the regression method as the ED50, that is, the dose in mg/kg of the compound which could antagonise the animal's immobility time by 50%.

[2] = Memory-enhancement activity in the passive avoidance test in the rat; type: in vivo, rat (male Wistar); settings: for change in vivo at 0.1 mg/kg / change in vivo at 1 mg/kg / change in vivo at 10 mg/kg: 96 h, read-out: % variation vs controls (FS) in step through latency
Method: 2) Memory-enhancement activity in the "passive avoidance" test in the rat
A "passive avoidance" model was used, which required a single "step-through" situation and a retest of the "retention memory" 72 h after the training.
Male Wistar rats which weighed about 200 g and had not fasted, were used. The test consisted of evaluating the degree of memory of an animal after it had been trained as follows.
The equipment used was a shuttle box modified thus: one compartment was lined with black card including the cover, and a 60 W lamp was disposed above the other, spaced from the grid floor by about 40 cm. The two compartments were divided by an automatic guillotine-like door. Each animal was placed in the compartment in the light with the guillotine-likedoor open. From this moment, the time taken by the rat to go into the compartment lined with black card (the dark compartment) (the step-throughlatency=STL) was measured. The animals which took more than 30 sec to go into the dark were discarded. Once they had gone into the dark, the door was lowered automatically and a=0.1 mA shock lasting 5 sec (a foot shock=FS) started. After 10 sec, the animal was removed from the shuttle box.
Upon completion, the animals were selected randomly in homogeneous groups and treated with the products.
The retest to determine memory was made after 72 hours. The products were administered chronically in the preselected manner twice per day and the last treatment 30 min before the retest (6 treatments altogether).
The memory-retention test (the retest) consisted of placing each animal, treated 30 min beforehand with a physiological solution or with the product, in the compartment which was not lined with black card for 30 sec.
The results are expressed as the percentage variation of the STL (in seconds) of the groups treated in comparison with the control group by means of this formula: [formula]

[3] = target: excitor amino-acid receptors of cortical membranes ("forebrain") of rats; assay: Inhibition of the specific binding of [3H]-glutamate to rat forebrain membranes; settings: rat forebrain membranes, 20 min, 37° C., pH 7.1
Source text: 6) Studies on binding to rat "forebrain" membranes
L-glutamate recognizes all three receptor subtypes indicated above, al though not selectively. It is therefore desirable to evaluate the capacity of each of the compounds of the invention to interact with the excitor amino-acid receptors of the CNS.
"Forebrain", that is, the cerebral cortex and the hippocampus, were selected as the receptor tissue and ^3 H-L-glutamate as the ligand for marking this heterogenous receptor population.
Rat cerebral tissue (forebrain without striated tissue) was therefore homogeneised cold in tris buffer at pH 7.4. After washing and centrifuging, the final pellet was resuspended in 50 volumes of tris HCl binding buffer at 7.1. 0.5 ml of receptor membrane thus obtained were then incubated, together with the radioactive tracer and the compounds under test, for 20 min at 37° C. The reaction was terminated by separating the bound radio-ligand from the free radio-ligand by filteration on glass-fibre filters which, after washing, were counted in a liquid scintillator (a β-counter) thus determining the radioactivity associated with the pellet. The specific binding was determined as the difference between the binding in the absence and in the presence of cold 3.6 mM L-glutamate.

[4] = Antiamnesic activity in the mouse (step-down passive avoidance, amnesia induced by ECS); type: in vivo, mouse (CD1 male)
Source text: 1) Antiamnesic activity in the mouse (step-down passive avoidance)
An electroconvulsive shock (ECS) produces retrograde amnesia in the test animal if applied immediately after the training received, for example, a harmful stimulus of a suitable intensity.
The object of the experiment was to study the effects of the compounds of the invention in antagonizing the amnesic effect of an ECS on the short-term memory consolidation process.
CD1 male mice which weighed about 30-35 g, and had not fasted were used. The equipment used was a rectangular plexiglass cage (21×21×40cm) with an electrifiable grid floor and a wooden cube (4×4×4 cm) fixed in the centre of the cage. The animals were treated orally with the product under test 60 minutes before the training.
The mouse was placed delicately on the wooden cube and the time it took to descend to the grid floor (SDL=step-down latency) was measured. When all four of the animal's paws were resting on the floor the continuous 0.2 mA shock started and the time taken by The mouse to remount the wooden cube (EL=escape latency) was measured.
The animals with an SDL of between 3 and 30 sec and with an EL of between 3 and 60 sec were used for retesting.
Immediately afterwards, a transcorneal ECS was applied with the use of the following parameters: amperage 15 mA, frequency 50 Hz, duration of the train of pulses 0.4 sec. duration of each individual pulse 1 msec., interval between pulses 20 msec. As well as the groups treated with ECS, a control group without ECS and a control group with ECS were used.
The retest was carried out after 24 h.
The results are expressed as the percentage variation of the SDL of the treated groups in comparison with the control group by means of this formula: [formula]

[5] = Antagonism of the amnesic effect induced by scopolamine in the passive avoidance test in the rat; type: in vivo; settings: for % Effect vs controls / Latency (STL): FS + SCOP
Method: 4) Antagonism of the amnesic effect induced by scopolamine in the "passive avoidance" test in the rat.
The shuttle box equipment was used for passive avoidance as described in Experiment 2 with the following modifications: the compounds (or physiological solutions for the control group) were administered intraperitoneally (IP) 45 min before the training, whereas scopolamine (SCOP) was administered 30 min before the training. The foot shock (FS) consisted of a 0.2 mA shock of 5 sec duration.
The retest to determine memory was executed 24 h after the training. In each individual experiment, the following groups were used: a control group (-FS), a control group (+FS), a control group (FS+SCOP), 3 treatment groups with different doses of the product under test (FS+SCOP).

[6] = 5 min, 5 minutes, read-out: Decrease in immobility (as %) vs the controls
[7] = 0.1 mg/kg IP, rat, retest on the 4th day, 6 treatments
[8] = 1 mg/kg IP, rat, retest on the 4th day, 6 treatments
[9] = 10 mg/kg IP, rat, retest on the 4th day, 6 treatments
[10] = Mus musculus, po, 24 h, read-out: Reversal of the amnesia (% vs controls), as the increase in the Step Down Latency

With `CC1(C)CCC(NC(=O)[C@H](N)CCC(=O)O)CC1` [Compound 24] the inhibition in vivo at 3 mg/kg [1, 6] was 0%, the inhibition in vivo at 10 mg/kg [1, 6] was 16% and the inhibition in vivo at 30 mg/kg [1, 6] was 19%. The “Antidepressant activity (in words)” value ([1]; IP) was “inactive”, the “ED50 (dose antagonising immobility time by 50%)” value ([1]; IP) was “Inactive” and the change in vivo at 0.1 mg/kg [2, 7] was 8%. For the same molecule, the change in vivo at 1 mg/kg [2, 8] was 0%, the change in vivo at 10 mg/kg [2, 9] was 0% and the “Activity in increasing the avoidance time (in words)” value ([2]; rat, IP, retest on the 4th day) was “inactive”. The IC50 [3] was greater than 1000 µM, the “Antiamnesic activity (in words)” value ([4]; OS, mouse) was “completely inactive” and the change in vivo at 0.1 mg/kg ([4]; po, 0.1 mg/kg OS, mouse, retest 24 h after training, read-out: Reversal of the amnesia (% vs controls), as the increase in the Step Down Latency) was 0%. It also gave a change in vivo at 1 mg/kg ([4]; po, 1 mg/kg OS, mouse, retest 24 h after training, read-out: Reversal of the amnesia (% vs controls), as the increase in the Step Down Latency) of 0% and a change in vivo at 10 mg/kg ([4]; po, 10 mg/kg OS, mouse, retest 24 h after training, read-out: Reversal of the amnesia (% vs controls), as the increase in the Step Down Latency) of 11%.

Molecule `N[C@@H](CC(=O)O)C(=O)NCCC12CC3CC(CC(C3)C1)C2` [Compound 43] has an inhibition in vivo at 1 mg/kg ([1]; 5 min, 1 mg/kg IP, 5 minutes, read-out: Decrease in immobility (as %) vs the controls) of 0%, an inhibition in vivo at 3 mg/kg [1, 6] of 34% and an inhibition in vivo at 10 mg/kg [1, 6] of 60%. For the same molecule, the inhibition in vivo at 30 mg/kg [1, 6] was 93%, the “Antidepressant activity (in words)” value ([1]; IP) was “antidepressant effect of the same order of magnitude as the comparison drug used, amitriptyline” and the ED50 ([1]; IP, read-out: ED50 (dose antagonising immobility time by 50%)) was 6.4 mg/kg. The change in vivo at 0.1 mg/kg [2, 7] was 10%, the change in vivo at 1 mg/kg [2, 8] was 16% and the change in vivo at 10 mg/kg [2, 9] was 29%. The ED30 ([2]; IP, rat, read-out: ED30 (dose increasing the latency time (STL) by 30%)) was 16.9 mg/kg, the IC50 [3] was 33.5 µM and the “Antiamnesic activity (in words)” value ([4]; OS, mouse) was “less active”. The change in vivo at 0.3 mg/kg ([4]; po, 0.3 mg/kg OS, mouse, retest 24 h after training, read-out: Reversal of the amnesia (% vs controls), as the increase in the Step Down Latency) was 13%, the change in vivo at 3 mg/kg ([4]; po, 3 mg/kg OS, mouse, retest 24 h after training, read-out: Reversal of the amnesia (% vs controls), as the increase in the Step Down Latency) was 19% and the change in vivo at 30 mg/kg ([4]; po, 30 mg/kg OS, mouse, retest 24 h after training, read-out: Reversal of the amnesia (% vs controls), as the increase in the Step Down Latency) was 53%. For the same molecule, the ED50 ([4]; po, OS, mouse, 60 min before training, read-out: ID50 (antiamnesic activity, dose inhibiting the amnesic effect of the ECS by 50%)) was 38.3 mg/kg.

With `Nc1c2c(nc3ccccc13)CCCC2` [Tacrine, reference compound] the “% Effect vs controls” value ([5]; 0.3 mg/kg IP) was 0%, the “Latency (STL)” value ([5]; 0.3 mg/kg IP) was 59.7 s and the “% Effect vs controls” value ([5]; 1 mg/kg IP) was 41.1%. For the same molecule, the “Latency (STL)” value ([5]; 1 mg/kg IP) was 73.1 s, the “% Effect vs controls” value ([5]; 3 mg/kg IP) was 49.2% and the “Latency (STL)” value ([5]; 3 mg/kg IP) was 75.3 s. For the same molecule, the “% Effect vs controls” value ([5]; 10 mg/kg IP) was 64.8%, the “Latency (STL)” value ([5]; 10 mg/kg IP) was 79.5 s and the ED50 ([5]; Rattus norvegicus, ip, 24 h, read-out: ID50 (dose antagonizing the amnesic effect of scopolamine by 50%)) was 3.4 mg/kg. It also gave a change in vivo at 0.1 mg/kg ([2]; Rattus norvegicus, ip) of 7%, a change in vivo at 1 mg/kg ([2]; Rattus norvegicus, ip) of 6% and a change in vivo at 10 mg/kg ([2]; Rattus norvegicus, ip) of 12%. For the same molecule, the “Activity in increasing the avoidance time (in words)” value ([2]; rat, IP, retest on the 4th day) was “inactive”, the change in vivo at 0.1 mg/kg [4, 10] was 10% and the change in vivo at 1 mg/kg [4, 10] was 9%. The change in vivo at 3 mg/kg [4, 10] was 20%, the change in vivo at 10 mg/kg [4, 10] was 9% and the “Antiamnesic activity (in words)” value ([4]; OS, mouse) was “inactive”.
